From patent US9168259B2 (GRÜNENTHAL GMBH, priority 2010, dated 2015)

Molecular target: T1, KCNQ2/3 channels (Homo sapiens, UniProt O43525+O43526)
T1 construct: expressed in transfected cells
Test: Fluorescence assay using a voltage sensitive dye (fluorimetry)
Format: cell-based
Settings: CHO-K1 cells expressing KCNQ2/3; for Emax: CHO-K1, plateau effect relative to saturated retigabine (50 μM) = 100%, negative values = antagonistic, read-out: Fluorimetry % efficacy (retigabine = 100%); for EC50: IC50 where % efficacy is negative, read-out: Fluorimetry EC50/IC50

T1 sequence (O43526 whole entry): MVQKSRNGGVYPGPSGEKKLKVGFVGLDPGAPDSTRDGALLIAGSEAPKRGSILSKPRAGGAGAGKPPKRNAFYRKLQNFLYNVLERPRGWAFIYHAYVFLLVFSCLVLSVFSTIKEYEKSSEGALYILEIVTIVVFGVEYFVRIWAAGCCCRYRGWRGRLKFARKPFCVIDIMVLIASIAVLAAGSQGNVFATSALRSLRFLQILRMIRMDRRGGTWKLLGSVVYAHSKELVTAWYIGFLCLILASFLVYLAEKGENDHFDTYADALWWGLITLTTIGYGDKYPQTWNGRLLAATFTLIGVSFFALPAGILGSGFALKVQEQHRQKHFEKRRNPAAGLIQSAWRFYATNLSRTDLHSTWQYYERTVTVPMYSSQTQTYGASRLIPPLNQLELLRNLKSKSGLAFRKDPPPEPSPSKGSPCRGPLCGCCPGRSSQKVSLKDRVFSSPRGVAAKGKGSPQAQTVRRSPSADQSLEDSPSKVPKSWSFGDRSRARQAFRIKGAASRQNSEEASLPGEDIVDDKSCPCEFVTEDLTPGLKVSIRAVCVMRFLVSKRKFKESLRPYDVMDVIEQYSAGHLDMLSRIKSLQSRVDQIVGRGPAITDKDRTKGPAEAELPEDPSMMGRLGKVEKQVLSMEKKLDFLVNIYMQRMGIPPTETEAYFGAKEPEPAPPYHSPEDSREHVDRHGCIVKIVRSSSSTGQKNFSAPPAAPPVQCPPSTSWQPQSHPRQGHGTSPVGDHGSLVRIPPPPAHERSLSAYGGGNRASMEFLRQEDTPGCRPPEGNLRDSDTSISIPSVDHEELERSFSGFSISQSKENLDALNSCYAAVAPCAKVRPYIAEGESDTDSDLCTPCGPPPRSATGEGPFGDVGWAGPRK
T1 sequence (O43525 whole entry): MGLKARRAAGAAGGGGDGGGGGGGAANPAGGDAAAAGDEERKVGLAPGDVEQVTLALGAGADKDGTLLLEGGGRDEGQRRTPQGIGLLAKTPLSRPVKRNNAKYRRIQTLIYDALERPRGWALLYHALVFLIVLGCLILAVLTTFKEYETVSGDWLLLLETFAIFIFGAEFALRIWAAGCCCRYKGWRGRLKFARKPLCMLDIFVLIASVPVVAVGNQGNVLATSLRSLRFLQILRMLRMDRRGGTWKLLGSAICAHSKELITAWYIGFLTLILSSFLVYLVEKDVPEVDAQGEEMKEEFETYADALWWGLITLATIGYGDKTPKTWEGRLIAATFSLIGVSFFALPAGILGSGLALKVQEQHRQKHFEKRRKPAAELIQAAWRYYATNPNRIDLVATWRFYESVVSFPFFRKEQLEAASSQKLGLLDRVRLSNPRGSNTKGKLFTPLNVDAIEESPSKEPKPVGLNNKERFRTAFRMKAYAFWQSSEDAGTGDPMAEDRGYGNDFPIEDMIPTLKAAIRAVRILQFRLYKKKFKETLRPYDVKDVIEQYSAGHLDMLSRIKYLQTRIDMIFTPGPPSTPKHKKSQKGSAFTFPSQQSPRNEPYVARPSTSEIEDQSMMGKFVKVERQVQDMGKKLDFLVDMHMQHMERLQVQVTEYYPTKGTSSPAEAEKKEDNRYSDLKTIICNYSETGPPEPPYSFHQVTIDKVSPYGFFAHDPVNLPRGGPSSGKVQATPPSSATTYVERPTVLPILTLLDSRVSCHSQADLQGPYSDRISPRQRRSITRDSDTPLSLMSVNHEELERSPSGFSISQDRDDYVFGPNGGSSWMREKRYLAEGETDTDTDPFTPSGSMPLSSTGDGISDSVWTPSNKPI

| Emax [%] | EC50 [nM] | SMILES |
| --- | --- | --- |
| 212 | 91 | CCSc1nc(N2CCOC(C)C2)cc(C)c1C(=O)NCCCC(C)(C)C (stereo not drawn) [Example 219, N-(4,4-Dimethyl-pentyl)-2-ethylsulfanyl-4-methyl-6-(2-methyl-morpholin-4-yl)-pyridine-3-carboxylic acid amide] |
| 146 | 770 | CCSc1nc(N2CCO[C@H](C)C2)cc(C)c1C(=O)NCc1cccc(F)c1 [Example 139, 2-Ethylsulfanyl-N-[(3-fluorophenyl)-methyl]-4-methyl-6-[(2R)-2-methyl-morpholin-4-yl]-pyridine-3-carboxylic acid amide] |
| 33 |  | CCSc1nc(N2CCOCC2)cc(C)c1C(=O)NCC(C)CC(C)(C)C (stereo not drawn) [Example 306, 2-Ethylsulfanyl-4-methyl-6-morpholin-4-yl-N-(2,4,4-trimethyl-pentyl)-pyridine-3-carboxylic acid amide] |
| 145 | 217 | CCSc1nc(N2CCOC(C)C2)cc(C)c1C(=O)NCc1cccc(F)c1 (racemic) [Example 48, 2-Ethylsulfanyl-N-[(3-fluorophenyl)-methyl]-4-methyl-6-(2-methyl-morpholin-4-yl)-pyridine-3-carboxylic acid amide] |
| 140 | 6320 | COCc1nc(N2CCOCC2)cc(C)c1C(=O)NCc1cccc(F)c1 [Example 356, N-[(3-Fluorophenyl)-methyl]-2-(methoxymethyl)-4-methyl-6-morpholin-4-yl-pyridine-3-carboxylic acid amide] |
| 138 | 311 | COc1nc(N2CCOCC2)cc(C)c1C(=O)NCc1ccc(F)c(F)c1 [Example 87, N-[(3,4-Difluoro-phenyl)-methyl]-2-methoxy-4-methyl-6-morpholin-4-yl-pyridine-3-carboxylic acid amide] |
| 53 |  | CCSc1nc(N2CCOCC2)cc(C)c1C(=O)NCCCc1ccccn1 [Example 109, 2-Ethylsulfanyl-4-methyl-6-morpholin-4-yl-N-(3-pyridin-2-yl-propyl)-pyridine-3-carboxylic acid amide] |
| 109 | 983 | CCSc1nc(N2CC(C)OC(C)C2)cc(C)c1C(=O)NCc1cccc(F)c1 (stereo not drawn) [Example 66, 6-(2,6-Dimethyl-morpholin-4-yl)-2-ethylsulfanyl-N-[(3-fluorophenyl)-methyl]-4-methyl-pyridine-3-carboxylic acid amide] |
| 153 | 109 | CCCOc1nc(N2CCOCC2)cc(C)c1C(=O)NCc1cccc(F)c1 [Example 111, N-[(3-Fluorophenyl)-methyl]-4-methyl-6-morpholin-4-yl-2-propoxy-pyridine-3-carboxylic acid amide] |
| 149 | 132 | CSc1nc(N2CCOCC2)cc(C)c1C(=O)NCc1ccc(Cl)cc1 [Example 168, N-[(4-Chlorophenyl)-methyl]-4-methyl-2-methylsulfanyl-6-morpholin-4-yl-pyridine-3-carboxylic acid amide] |
| 204 | 1540 | COCCCc1nc(N2CCOCC2)cc(C)c1C(=O)NCCCC(C)(C)C [Example 354, N-(4,4-Dimethyl-pentyl)-2-(3-methoxy-propyl)-4-methyl-6-morpholin-4-yl-pyridine-3-carboxylic acid amide] |
| 119 | 2610 | CCSc1nc(N2CCOCC2)cc(C)c1C(=O)NCC(C)(C)C [Example 47, N-(2,2-Dimethyl-propyl)-2-ethylsulfanyl-4-methyl-6-morpholin-4-yl-pyridine-3-carboxylic acid amide] |
| 238 | 15 | Cc1cc(N2CCOC[C@H]2C)nc(C(C)C)c1C(=O)NCCCC(C)(C)C [Example 185, N-(4,4-Dimethyl-pentyl)-2-isopropyl-4-methyl-6-[(3R)-3-methyl-morpholin-4-yl]-pyridine-3-carboxylic acid amide] |
| 60 |  | CCSc1nc(N2CCN3C(=O)CCC3C2)cc(C)c1C(=O)NCc1cccc(F)c1 (stereo not drawn) [Example 158, 2-Ethylsulfanyl-N-[(3-fluorophenyl)-methyl]-4-methyl-6-(6-oxo-2,3,4,7,8,8a-hexahydro-1H-pyrrolo[1,2-a]pyrazin-2-yl)-pyridine-3-carboxylic acid amide] |
| 156 | 41 | CCC(C)c1nc(N2CCOCC2)cc(C)c1C(=O)NCc1ccc(Cl)cc1 (stereo not drawn) [Example 347, N-[(4-Chlorophenyl)-methyl]-4-methyl-2-(1-methyl-propyl)-6-morpholin-4-yl-pyridine-3-carboxylic acid amide] |
| 96 | 786 | CCSc1nc(N(C)C2CCCOC2)cc(C)c1C(=O)NCc1cccc(F)c1 (stereo not drawn) [Example 261, 2-Ethylsulfanyl-N-[(3-fluorophenyl)-methyl]-4-methyl-6-(methyl-tetrahydro-pyran-3-yl-amino)-pyridine-3-carboxylic acid amide] |
| 156 | 168 | Cc1cc(N2CCOCC2)nc(C2CC2)c1C(=O)NCc1cccc(F)c1 [Example 330, 2-Cyclopropyl-N-[(3-fluorophenyl)-methyl]-4-methyl-6-morpholin-4-yl-pyridine-3-carboxylic acid amide] |
| 151 | 1070 | CCSc1nc(N2CCOCC2)cc(C)c1C(=O)NCc1ccc(OC)cc1 [Example 137, 2-Ethylsulfanyl-N-[(4-methoxyphenyl)-methyl]-4-methyl-6-morpholin-4-yl-pyridine-3-carboxylic acid amide] |
| 109 | 311 | CCSc1nc(N2CCOCC2)cc(C)c1C(=O)NCc1ccc([N+](=O)[O-])cc1 [Example 281, 2-Ethylsulfanyl-4-methyl-6-morpholin-4-yl-N-[(4-nitrophenyl)-methyl]-pyridine-3-carboxylic acid amide] |
| 134 | 7370 | CCSc1nc(N2CCOCC2)cc(C)c1C(=O)NCCC1CCCCO1 (stereo not drawn) [Example 68, 2-Ethylsulfanyl-4-methyl-6-morpholin-4-yl-N-(2-tetrahydro-pyran-2-yl-ethyl)-pyridine-3-carboxylic acid amide] |
| 126 | 9380 | CCSc1nc(N2CCOCC2)cc(C)c1C(=O)NCCCc1cccnc1 [Example 114, 2-Ethylsulfanyl-4-methyl-6-morpholin-4-yl-N-(3-pyridin-3-yl-propyl)-pyridine-3-carboxylic acid amide] |
| 160 | 4480 | CCSc1nc(N2CCOCC2)cc(C)c1C(=O)NCC1CCCCO1 (stereo not drawn) [Example 69, 2-Ethylsulfanyl-4-methyl-6-morpholin-4-yl-N-(tetrahydro-pyran-2-yl-methyl)-pyridine-3-carboxylic acid amide] |
| 146 | 45 | Cc1cc(N2CCOCC2)nc(C(C)C)c1C(=O)NCc1ccc(C(F)(F)F)cc1 [Example 311, 2-Isopropyl-4-methyl-6-morpholin-4-yl-N-[[4-(trifluoromethyl)-phenyl]-methyl]pyridine-3-carboxylic acid amide] |
| 145 | 673 | CCSc1nc(N2CCOCC2)cc(C)c1C(=O)NCc1ccc(C#N)cc1 [Example 145, N-[(4-Cyano-phenyl)-methyl]-2-ethylsulfanyl-4-methyl-6-morpholin-4-yl-pyridine-3-carboxylic acid amide] |
